molecular target: T1, full length active recombinant SYK enzyme (Homo sapiens, UniProt P43405); test: Inhibition of Syk tyrosine phosphorylation activity (LANCE TR-FRET kinase assay); format: biochemical
T1 construct: full length active recombinant SYK enzyme (Millipore, Calif.); purchased Millipore

IC50, 100 to 1000 nM:
Cc1cc(Nc2nc(N[C@@H]3CCCC(F)(F)[C@@H]3N)c(F)cc2C(N)=O)sn1 [Example 333, 6-((1R,2R)-2-amino-3,3-difluorocyclohexylamino)-5-fluoro-2-(3-methylisothiazol-5-ylamino)nicotinamide]
COc1cc(F)cc(Nc2nc(N[C@@H]3CCCC(F)(F)[C@@H]3N)c(F)cc2C(N)=O)c1 [Example 338, 6-((1R,2R)-2-amino-3,3-difluorocyclohexylamino)-5-fluoro-2-(3-fluoro-5-methoxyphenylamino)nicotinamide]
Cc1cc(Nc2cc(N[C@H](Cc3cccnc3)C(N)=O)c(F)cc2C(N)=O)sn1 [Example 39, (R)-4-(1-amino-1-oxo-3-(pyridin-3-yl)propan-2-ylamino)-5-fluoro-2-(3-methylisothiazol-5-ylamino)benzamide]
Cc1cccc(Nc2nc(N[C@H](CC(C)C)C(N)=O)ccc2C(N)=O)c1 [Example 105, (R)-6-(1-amino-4-methyl-1-oxopentan-2-ylamino)-2-(m-tolylamino)nicotinamide]
Cc1cc(Nc2cc(N[C@H](Cc3ccncc3)C(N)=O)c(F)cc2C(N)=O)sn1 [Example 38, (R)-4-(1-amino-1-oxo-3-(pyridin-4-yl)propan-2-ylamino)-5-fluoro-2-(3-methylisothiazol-5-ylamino)benzamide]
N#Cc1cc(C(N)=O)c(Nc2cccc(-n3nccn3)c2)nc1NC[C@@H](N)C1CC1 [Example 111, (S)-2-(3-(2H-1,2,3-triazol-2-yl)phenylamino)-6-(2-amino-2-cyclopropylethylamino)-5-cyanonicotinamide]
Cc1cc(Nc2cc(N[C@@H]3CCCC[C@@H]3N)ccc2C(N)=O)on1 [Example 147, 4-((1R,2S)-2-aminocyclohexylamino)-2-(3-methylisoxazol-5-ylamino)benzamide]
CC[C@@H](Nc1nc(Nc2cncc(OC)c2)c(C(N)=O)cc1F)C(N)=O [Example 232, (R)-6-(1-amino-1-oxobutan-2-ylamino)-5-fluoro-2-(5-methoxypyridin-3-ylamino)nicotinamide]
NC(=O)c1cc(F)c(N[C@@H]2CCCC[C@@H]2N)nc1Nc1ccnnc1 [Example 84]
NC(=O)c1cc(F)c(N[C@@H]2CCCC[C@@H]2N)nc1Nc1cccc2ccncc12 [Example 75, 6-((1R,2S)-2-aminocyclohexylamino)-5-fluoro-2-(isoquinolin-8-ylamino)nicotinamide]

IC50, 1 to 10 nM:
Cn1ncc2c(Nc3nc(N[C@@H]4CCCC[C@@H]4N)ccc3C(N)=O)cccc21 [Example 398, 6-((1R,2S)-2-aminocyclohexylamino)-2-(1-methyl-1H-indazol-4-ylamino)nicotinamide]
NC(=O)c1ccc(N[C@@H]2CCCC[C@@H]2N)nc1Nc1cnc2cccnc2c1 [Example 184]
Cc1cc(Nc2nc(N[C@@H]3CCCC[C@@H]3N)c(F)cc2C(N)=O)cc(C)n1 [Example 86, 6-((1R,2S)-2-aminocyclohexylamino)-2-(2,6-dimethylpyridin-4-ylamino)-5-fluoronicotinamide]
N#Cc1cc(C(N)=O)c(Nc2cccc(-c3ncccn3)c2)nc1N[C@@H]1CCCC[C@@H]1N [Example 130]
NC(=O)c1ccc(N[C@@H]2CCCC[C@@H]2N)nc1Nc1cncc(-n2cccn2)c1 [Example 159, 2-(5-(1H-pyrazol-1-yl)pyridin-3-ylamino)-6-((1R,2S)-2-aminocyclohexylamino)nicotinamide]
NC(=O)c1ccc(N[C@@H]2CCCC[C@@H]2N)nc1Nc1cncc(-c2nccs2)c1 [Example 163]
NC(=O)c1cc(F)c(N[C@@H]2CCCC[C@@H]2N)nc1Nc1cncc(-c2ncccn2)c1 [Example 156, 6-((1R,2S)-2-aminocyclohexylamino)-5-fluoro-2-(5-(pyrimidin-2-yl)pyridin-3-ylamino)nicotinamide]
NC(=O)c1cc(F)c(N[C@@H]2CCCC[C@@H]2N)nc1Nc1cccc(-n2ccnn2)c1 [Example 43]
NC(=O)c1ccc(N[C@@H]2CCCC[C@@H]2N)nc1Nc1cnn2ccccc12 [Example 419, 6-((1R,2S)-2-aminocyclohexylamino)-2-(pyrazolo[1,5-a]pyridin-3-ylamino)nicotinamide]
NC(=O)c1cc(F)c(N[C@@H]2CCCC[C@@H]2N)nc1Nc1cccc(N2CCCC2)c1 [Example 47, 6-((1R,2S)-2-aminocyclohexylamino)-5-fluoro-2-(3-(pyrrolidin-1-yl)phenylamino)nicotinamide]
Cc1cncc(Nc2nc(N[C@@H]3CCCC[C@@H]3N)c(F)cc2C(N)=O)c1 [Example 87, 6-((1R,2S)-2-aminocyclohexylamino)-5-fluoro-2-(5-methylpyridin-3-ylamino)nicotinamide]
NC(=O)c1ccc(N[C@@H]2CCCC[C@@H]2N)nc1Nc1ccc2c(c1)OCCO2 [Example 254, 6-((1R,2S)-2-aminocyclohexylamino)-2-(2,3-dihydrobenzo[b][1,4]dioxin-6-ylamino)nicotinamide]
NC(=O)c1cc(F)c(N[C@@H]2CCCC[C@@H]2N)nc1Nc1ccn2ccnc2c1 [Example 62, 6-((1R,2S)-2-aminocyclohexylamino)-5-fluoro-2-(imidazo[1,2-a]pyridin-7-ylamino)nicotinamide]
NC(=O)c1cc(F)c(N[C@@H]2CCCC[C@@H]2N)nc1Nc1ccc(-n2cncn2)cc1 [Example 50]
CCC[C@@H](Nc1nc(Nc2cnc3ccccc3c2)c(C(N)=O)cc1F)C(N)=O [Example 199, (R)-6-(1-amino-1-oxopentan-2-ylamino)-5-fluoro-2-(quinolin-3-ylamino)nicotinamide]
NC(=O)c1ccc(N[C@@H]2CCCC[C@@H]2N)nc1Nc1cccc(-n2nccn2)c1 [Example 132, 2-(3-(2H-1,2,3-triazol-2-yl)phenylamino)-6-((1R,2S)-2-aminocyclohexylamino)nicotinamide]

IC50, > 1000 nM:
Cc1cc(Nc2c(C(N)=O)ccc(N[C@H](CC(C)C)C(N)=O)c2F)sn1 [Example 23, (R)-4-(1-amino-4-methyl-1-oxopentan-2-ylamino)-3-fluoro-2-(3-methylisothiazol-5-ylamino)benzamide]
Cc1cc(Nc2cc(N[C@H](CC(C)C)C(N)=O)cc(F)c2C(N)=O)sn1 [Example 19, (R)-4-(1-amino-4-methyl-1-oxopentan-2-ylamino)-2-fluoro-6-(3-methylisothiazol-5-ylamino)benzamide]

IC50, 10 to 100 nM:
Cn1ccc2cc(Nc3nc(N[C@@H]4CCCC(F)(F)[C@@H]4N)c(F)cc3C(N)=O)ccc21 [Example 331, 6-((1R,2R)-2-amino-3,3-difluorocyclohexylamino)-5-fluoro-2-(1-methyl-1H-indol-5-ylamino)nicotinamide]
CCC[C@@H](Nc1nc(Nc2ccc3ncccc3c2)c(C(N)=O)cc1F)C(N)=O [Example 200]
NC(=O)c1ccc(N[C@@H]2CCCC[C@@H]2N)nc1Nc1cccc(-c2ncccn2)c1 [Example 133, 2-(3-(pyrimidin-2-yl)phenylamino)-6-((1R,2S)-2-aminocyclohexylamino)nicotinamide]
CC[C@@H](Nc1nc(Nc2ccc3c(cnn3C)c2)c(C(N)=O)cc1F)C(N)=O [Example 241, (R)-6-(1-amino-1-oxobutan-2-ylamino)-5-fluoro-2-(1-methyl-1H-indazol-5-ylamino)nicotinamide]
NC(=O)c1cc(F)c(N[C@H]2[C@@H](N)CCCC2(F)F)nc1Nc1cncc(F)c1 [Example 348]
NC(=O)c1ccc(N[C@@H]2CCCC[C@@H]2N)nc1Nc1ccc(-n2cccn2)cc1 (relative stereo) [Example 140, 6-(cis-2-aminocyclohexylamino)-2-(4-(1H-pyrazol-1-yl)phenylamino)nicotinamide]
Cn1ccc2c(Nc3nc(N[C@@H]4CCCC(F)(F)[C@@H]4N)c(F)cc3C(N)=O)cccc21 [Example 330, 6-((1R,2R)-2-amino-3,3-difluorocyclohexylamino)-5-fluoro-2-(1-methyl-1H-indol-4-ylamino)nicotinamide]
Cc1cc(Nc2cc(N[C@@H]3CCCC[C@@H]3N)ccc2C(N)=O)sn1 [Example 6, 4-((1R,2S)-2-aminocyclohexylamino)-2-(3-methylisothiazol-5-ylamino)benzamide]
COC[C@@H](Nc1cc(Nc2cc(C)ns2)c(C(N)=O)cc1F)C(N)=O [Example 40, (R)-4-(1-amino-3-methoxy-1-oxopropan-2-ylamino)-5-fluoro-2-(3-methylisothiazol-5-ylamino)benzamide]
CC[C@@H](Nc1nc(Nc2ccc3ncccc3c2)c(C(N)=O)cc1F)C(N)=O [Example 100]
NC(=O)c1cc(F)c(N[C@@H](C(N)=O)C2CC2)nc1Nc1cnc2ccccc2c1 [Example 196, (R)-6-(2-amino-1-cyclopropyl-2-oxoethylamino)-5-fluoro-2-(quinolin-3-ylamino)nicotinamide]
C[C@@H](Nc1nc(Nc2ccc3ncccc3c2)c(C(N)=O)cc1F)C(N)=O [Example 302, (R)-6-(1-amino-1-oxopropan-2-ylamino)-5-fluoro-2-(quinolin-6-ylamino)nicotinamide]
Cc1ccccc1Nc1nc(N[C@@H]2CCCC[C@@H]2N)c(F)cc1C(N)=O [Example 313, 6-((1R,2S)-2-aminocyclohexylamino)-5-fluoro-2-(o-tolylamino)nicotinamide]
CC[C@@H](Nc1nc(Nc2cccc3ncccc23)c(C(N)=O)cc1F)C(N)=O [Example 245, (R)-6-(1-amino-1-oxobutan-2-ylamino)-5-fluoro-2-(quinolin-5-ylamino)nicotinamide]

From patent US8846928B2 (Portola Pharmaceuticals, Inc., priority 2010, dated 2014)
